Broadly, the melting point is the temperature, or range, at which the solid turns liquid. `Nc1ncc(C(F)(F)F)cc1Br` [2-amino-3-bromo-5-(trifluoromethyl)pyridine] gave a melting point of 100 °C.
Molecule `CN(C)c1ccc(C(=O)Cl)cc1` [4-dimethylaminobenzoyl chloride] displayed a melting point of 145 °C.
The molecule `O=C2/N=C\1/N(c3cc(c(cc3/N=C/1C(=O)N2)C)C)CC(O)C(O)C(O)CO` (stereo not drawn) [riboflavin] registered a melting point of 280 °C.
The result for `C=Cc1ccc(-c2ccccc2)cc1` [p-phenylstyrene] reads 119 °C.
On to `Cc1cccc(N)c1` [m-toluidine], for which the melting point is -30 °C.
`CC(C)C(O)C(C)(C)CO` (stereo not drawn) [2,2,4-trimethyl-1,3-pentanediol] returned a melting point of 52 °C.
Then `C=CCc1ccccc1` [allylbenzene], with -50 °C.
The molecule `O=C(O)COc1ccccc1` [phenoxyacetic_acid] displayed a melting point of 100 °C.
The molecule `O=C(O)CCCCC(=O)O` [adipic_acid] gave a melting point of 153 °C.
The result for `C(#Cc1ccccc1)c1ccccc1` [diphenylacetylene] reads 60 °C; that for `CC=1CCCC(C)(C)C=1/C=CC(C)=CC=CC(C)=CC(=O)O` [Alitretinoin], 190 °C; that for `CCC(=O)c1ccccc1` [propiophenone], 18 °C.
The result for `CCC(C(=O)NC(=O)NC(C)=O)c1ccccc1` (stereo not drawn) [1-Acetyl-3-(2-phenylbutyryl)urea] reads 100 °C; that for `c1ccc(C2CCCCC2)cc1` [cyclohexylbenzene], 6 °C.
Take `O=C(O)c1c(Cl)cccc1Cl` [2,6-dichlorobenzoic_acid]: the melting point came out at 144 °C.
Turning to `N#CC1(O)CCN(Cc2ccccc2)CC1` [1-benzyl-4-cyano-4-hydroxypiperidine], the melting point turned out to be 97 °C.
Consider `COC(=O)c1sc(-c2ccccc2)cc1N` [methyl 3-amino-5-phenylthiophene-2-carboxylate], for which the melting point worked out at 147 °C.
Turning to `O=C[C@H](O)[C@@H](O)[C@@H](O)[C@H](O)CO` [D-galactose], the melting point worked out at 167 °C.
Take `CC(C)(C)OOC(C)(C)C` [Di-tert-butyl peroxide]: the melting point is -40 °C.
As to `COC(=O)c1cccc(O)c1` [methyl_3-hydroxybenzoate], the melting point stood at 74 °C.
For `OCC1COc2ccccc2O1` (stereo not drawn) [2-hydroxymethyl-1,4-benzodioxane], the melting point is 89 °C.
On to `O=C(O)/C(=C/c1ccccc1)c1ccc([N+](=O)[O-])cc1` [(E)-2-(4-nitrophenyl)-3-phenylpropenoic acid], for which the melting point turned out to be 228 °C.
Molecule `O=C1OC2(OC=C(c3ccccc3)C2=O)c2ccccc21` (stereo not drawn) [fluorescamine] gave a melting point of 157 °C.
With `Oc1ccc(Cl)cc1Cc1cc(Cl)ccc1O` [2,2'-methylenebis(4-chlorophenol)], the melting point came out at 174 °C.
For `N#Cc1ccccc1S(=O)(=O)Cl` [2-cyanobenzenesulfonyl chloride], the melting point was 67 °C.
The result for `C=Cc1cccc(B(O)O)c1` [3-vinylbenzeneboronic acid] reads 128 °C; that for `CCCCCCCCCCCCCC(=O)O` [Myristic acid], 55.1 °C; that for `Cc1c(N(C)C)c(=O)n(-c2ccccc2)n1C` [aminopyrine], 108 °C.
Molecule `Brc1ccccc1I` [1-bromo-2-iodobenzene] yielded a melting point of 10 °C.
As for `NC(=O)c1ccc([N+](=O)[O-])cc1` [p-nitrobenzamide], the melting point was 201 °C.
In turn, `Oc1c(F)c(F)c(F)c(F)c1F` [pentafluorophenol] registered a melting point of 34 °C.
In turn, `Cc1cccc(N)c1C` [2,3-dimethylaniline] yielded a melting point of 2 °C.
`Cc1ccnc(C)c1` [2,4-lutidine]: the melting point is -60 °C.
For `O=CCCCC=O` [glutaraldehyde], the melting point is -21 °C.
Consider `CCCCC[C@H]1CC[C@H](C(=O)O)CC1` [trans-4-n-pentylcyclohexanecarboxylic acid], for which the melting point was determined as 54 °C.
Then `Nc1ccc([N+](=O)[O-])cc1C(=O)c1ccccc1` [2-amino-5-nitrobenzophenone], with 167 °C; and `O=S(=O)(Cl)c1cc(S(=O)(=O)c2ccccc2)cs1` [4-(phenylsulfonyl)thiophene-2-sulfonyl chloride], with 102 °C.
Consider `CCCCCCCCCCCC(=O)O` [Lauric acid], for which the melting point came out at 45 °C.
The molecule `O=C(c1ccccc1)c1c(F)c(F)c(F)c(F)c1F` [(Pentafluorophenyl)(phenyl)methanone] showed a melting point of 37.5 °C.
Then `Cc1ccc(C(=O)O)cc1` [4-Methylbenzoic acid], with 180 °C.
As to `CN=C=O` [Isocyanatomethane], the melting point is -80 °C.
Take `OCc1ccccc1-c1ccccc1` [o-phenylbenzyl_alcohol]: the melting point was 50 °C.
Regarding `C=CC(=O)OC` [methyl_acrylate], the melting point is -75 °C.
`OB(O)c1ccccc1C(F)(F)F` [2-(trifluoromethyl)benzeneboronic acid] yielded a melting point of 109 °C.
`COc1ccc(C2=CCC3(C)C(CCC4C3CCC3(C)C(OC(C)=O)CCC43)C2)cc1` (stereo not drawn) [3-(4-methoxyphenyl)androst-2-en-17-yl acetate] displayed a melting point of 179 °C.
The result for `CCCCCCCCCC(=O)O` [decanoic_acid] reads 32 °C; that for `CCc1cc(Br)ccc1NC(C)=O` [4'-bromo-2'-ethylacetanilide], 143 °C; that for `CC=1CCC[C@](C)(C)C=1/C=CC(C)=CC=CC(C)=CC(=O)O` [Retinoic acid], 190 °C.
With `CCC(C)Cl` (stereo not drawn) [2-chlorobutane], the melting point was -131 °C.
In turn, `CCCCOC(=O)c1ccc(N)cc1` [Butyl 4-aminobenzoate] registered a melting point of 58 °C.
The result for `CC(=O)CCC(C)=O` [acetonylacetone] reads -6 °C.
`Ic1cccc(I)c1` [m-diiodobenzene] showed a melting point of 37 °C.
Turning to `N#CCc1nc2ccccc2s1` [2-benzothiazoleacetonitrile], the melting point stood at 101 °C.
`CCCCCCCC(=O)O` [octanoic_acid]: the melting point came out at 17 °C.
Take `CC12CCC3C(CCC4CC(=O)CCC43C)C1CCC2O` (stereo not drawn) [17-hydroxyandrostan-3-one]: the melting point amounted to 121 °C.
Molecule `Cc1cc(B(O)O)ccc1F` [4-fluoro-3-methylbenzeneboronic acid] gave a melting point of 210 °C.
For `Cc1ccc([N+](=O)[O-])cc1Cl` [2-chloro-4-nitrotoluene], the melting point worked out at 64 °C.
Turning to `OB(O)c1ccccc1OCc1ccccc1` [2-benzyloxybenzeneboronic acid], the melting point is 98 °C.
The result for `CCCN(CC1CC1)c1c([N+](=O)[O-])cc(C(F)(F)F)cc1[N+](=O)[O-]` [Profluralin] reads 32 °C; that for `COc1cc(OC)c2c(c1Cl)O[C@]1(C2=O)C(OC)CC(=O)C[C@H]1C` (stereo partly drawn) [griseofulvin], 220 °C; that for `C/C=C/CCCCC` [trans-2-octene], -88 °C.
Then `CC(=O)Oc1ccc(C(=O)O)cc1` [4-acetoxybenzoic acid], with 194 °C.
For the molecule `O=Cc1ccccc1O` [Salicylaldehyde], the melting point was found to be 1.5 °C.

Values taken from the Bradley open melting point set (2014).
